Laboratory results as given in ChEMBL document CHEMBL5352488, “Development of novel S-N3-DABO derivatives as potent non-nucleoside reverse transcriptase inhibitors with improved potency and selectivity” (Eur J Med Chem, 2023).

Assays:
[1] = test system: Human immunodeficiency virus 1; test: Anti-HIV activity against drug resistant HIV-1 harboring F227L/V106A mutant infected in human MT4 cells assessed as inhibition of virus-induced cytopathic effect by MTT assay; format: functional, organism-based; details: Human immunodeficiency virus 1, MT4
[2] = test system: Human immunodeficiency virus 1; test: Anti-HIV activity against drug resistant HIV-1 harboring K103N mutant infected in human MT4 cells assessed as inhibition of virus-induced cytopathic effect by MTT assay; format: functional, organism-based; details: Human immunodeficiency virus 1, MT4
[3] = Cytotoxicity against human MT4 cells assessed as reduction in cell viability by MTT assay; format: toxicity, cell-based
[4] = test system: Human immunodeficiency virus 1; test: Anti-HIV activity against drug resistant HIV-1 harboring L100I mutant infected in human MT4 cells assessed as inhibition of virus-induced cytopathic effect by MTT assay; format: functional, organism-based; details: Human immunodeficiency virus 1, MT4
[5] = test system: Human immunodeficiency virus 1; test: Anti-HIV activity against drug resistant HIV-1 harboring Y181C mutant infected in human MT4 cells assessed as inhibition of virus-induced cytopathic effect by MTT assay; format: functional, organism-based; details: Human immunodeficiency virus 1, MT4
[6] = Selectivity index, ratio of CC50 for cytotoxicity against human MT4 cells assessed as reduction in cell viability by MTT assay to EC50 for anti-HIV activity against wild type HIV-1 IIIB infected in human MT4 cells assessed as inhibition of virus-induced cytopathic effect by MTT assay; format: toxicity, cell-based; details: read-out: Ratio CC50/EC50
[7] = test system: Human immunodeficiency virus 1; test: Anti-HIV activity against drug resistant HIV-1 harboring E138K mutant infected in human MT4 cells assessed as inhibition of virus-induced cytopathic effect by MTT assay; format: functional, organism-based; details: Human immunodeficiency virus 1, MT4
[8] = test system: Human immunodeficiency virus 1; test: Anti-HIV activity against drug resistant HIV-1 harboring Y188L mutant infected in human MT4 cells assessed as inhibition of virus-induced cytopathic effect by MTT assay; format: functional, organism-based; details: Human immunodeficiency virus 1, MT4
[9] = test system: Human immunodeficiency virus 1; test: Anti-HIV activity against wild type HIV-1 IIIB infected in human MT4 cells assessed as inhibition of virus-induced cytopathic effect by MTT assay; format: functional, organism-based; details: Human immunodeficiency virus 1, IIIB

Compound | EC50 [1] [µM] | EC50 [2] [µM] | CC50 [3] [µM] | EC50 [4] [µM] | EC50 [5] [µM] | selectivity ratio [6] | EC50 [7] [µM] | EC50 [8] [µM] | EC50 [9] [µM]
Cc1cn([C@H]2C[C@H](N=[N+]=[N-])[C@@H](CO)O2)c(=O)[nH]c1=O [ZIDOVUDINE] | 0.026 | 0.024 | > 7.06 | 0.012 | 0.023 | > 236 |  |  | 
O=C1Nc2ccc(Cl)cc2[C@@](C#CC2CC2)(C(F)(F)F)O1 [EFAVIRENZ] | 0.28 |  |  |  |  |  |  |  | 
CC(C)Sc1nc(C(N=[N+]=[N-])c2ccc(Br)cc2)c(C(C)C)c(=O)[nH]1 (configuration not stated) | > 32.2 | 8.2 | 32.8 | 1.44 | > 32.2 | 23 | 3.69 | > 32.3 | 1.45
CCc1c(C(N=[N+]=[N-])c2ccc(-c3ccccc3)cc2)nc(SC(C)C)[nH]c1=O (configuration not stated) | 16 | 20.9 | > 308 | 2.06 | 4.41 |  | 0.37 | 65.4 | > 308
Cc1cc(C)cc(C(N=[N+]=[N-])c2nc(SC(C)C)[nH]c(=O)c2C(C)C)c1 (configuration not stated) |  |  | > 336 |  |  | > 878 |  |  | 0.38
COc1cc(OC)cc(C(N=[N+]=[N-])c2nc(SC(C)C)[nH]c(=O)c2C(C)C)c1 (configuration not stated) | 58.9 | > 139 | 97.6 | 10.2 | 54.7 | 55 | 4.56 | 63.1 | 1.78
CCc1c(C(N=[N+]=[N-])c2ccccc2)nc(SC(C)C)[nH]c1=O (configuration not stated) | 14.9 | 6.03 | > 379 | 12.2 | 6.02 | > 2770 | 0.55 | 188 | 0.14
CCc1c(C(N=[N+]=[N-])c2ccc(OC(F)(F)F)cc2)nc(SC(C)C)[nH]c1=O (configuration not stated) | 9.71 | 38.2 | > 302 | 29.5 | 60.4 | > 50 | 0.26 | 62.2 | 6.02
CCc1c(C(N=[N+]=[N-])c2ccc3ccccc3c2)nc(SC(C)C)[nH]c1=O (configuration not stated) |  |  | 3.98 |  |  | < 8 |  |  | 0.52
Cc1ccnc2c1NC(=O)c1cccnc1N2C1CC1 [NEVIRAPINE] | > 15 |  | > 15 |  | 7.71 |  |  | > 15 | 
Cc1c(C(N=[N+]=[N-])c2cccc3ccccc23)nc(SC(C)C)[nH]c1=O (configuration not stated) | > 342 | > 342 | > 342 | 5.27 | 186 | > 1000 | 1.37 | > 342 | 0.34
Cc1c(C(N=[N+]=[N-])c2ccc3ccccc3c2)nc(SC(C)C)[nH]c1=O (configuration not stated) | 65 | > 154 | 4.89 | 11.3 | 60.3 | 11 | 5.04 | 69.7 | 0.44
CC(C)Sc1nc(C(N=[N+]=[N-])c2ccc(Cl)cc2)c(C(C)C)c(=O)[nH]1 (configuration not stated) |  |  | > 331 |  |  | > 367 |  |  | 0.9
Cc1c(C(N=[N+]=[N-])c2ccc(Cl)cc2)nc(SC(C)C)[nH]c1=O (configuration not stated) | > 357 | 61.1 | > 357 | 11 | > 357 | > 1650 | 3.61 | > 357 | 0.22
Cc1c(C(N=[N+]=[N-])c2ccccc2)nc(SC(C)C)[nH]c1=O (configuration not stated) | > 396 | > 387 | > 396 | 10.6 | > 396 | > 7190 | 2.66 | > 396 | 0.055
CC(C)Sc1nc(C(N=[N+]=[N-])c2ccccc2)c(C(C)C)c(=O)[nH]1 (configuration not stated) |  |  | > 364 |  |  | > 780 |  |  | 0.47

Compound | EC50 [1] [µM] | EC50 [2] [µM] | CC50 [3] [µM] | EC50 [4] [µM] | EC50 [5] [µM] | selectivity ratio [6] | EC50 [7] [µM] | EC50 [8] [µM] | EC50 [9] [µM]
CCc1c(C(N=[N+]=[N-])c2ccc(Cl)cc2)nc(SC(C)C)[nH]c1=O (configuration not stated) | > 127 | 14.3 | > 344 | 3.69 | 95.2 | > 1310 | 0.81 | > 344 | 0.26
Cc1ccc(C(N=[N+]=[N-])c2nc(SC(C)C)[nH]c(=O)c2C)cc1 (configuration not stated) |  |  | 7.73 |  |  | 93 |  |  | 0.083
CCc1c(C(N=[N+]=[N-])c2cc(OC)cc(OC)c2)nc(SC(C)C)[nH]c1=O (configuration not stated) |  |  | > 321 |  |  | > 349 |  |  | 0.92
CCc1c(C(N=[N+]=[N-])c2cccc3ccccc23)nc(SC(C)C)[nH]c1=O (configuration not stated) | > 10.2 | 71.6 | 77.7 | 9.18 | 17.1 | 81 | 7.34 | 55.8 | 0.96
COc1cc(OC)cc(C(N=[N+]=[N-])c2nc(SC(C)C)[nH]c(=O)c2C)c1 (configuration not stated) | 38.5 | 107 | > 333 | 2.62 | 9.85 | > 983 | 1.54 | > 333 | 0.34
CC(C)Sc1nc(C(N=[N+]=[N-])c2ccc(-c3ccccc3)cc2)c(C(C)C)c(=O)[nH]1 (configuration not stated) |  |  | 84.2 |  |  | < 1 |  |  | > 59.2
CC(C)Sc1nc(C(N=[N+]=[N-])c2ccc3ccccc3c2)c(C(C)C)c(=O)[nH]1 (configuration not stated) | 7.39 | 3.3 | 4.79 | 1.06 | 1.4 | < 1 | 0.09 | > 58.7 | > 4.78
Cc1ccc(C(N=[N+]=[N-])c2nc(SC(C)C)[nH]c(=O)c2C(C)C)cc1 (configuration not stated) |  |  | > 350 |  |  | > 667 |  |  | 0.52
Cc1c(C(N=[N+]=[N-])c2ccc(-c3ccccc3)cc2)nc(SC(C)C)[nH]c1=O (configuration not stated) |  |  | > 319 |  |  |  |  |  | > 319
Cc1c(C(C#N)c2ccccc2)nc(SC(C)C)[nH]c1=O (configuration not stated) | 21.4 |  |  |  |  |  | 0.87 | > 204 | 0.37
Cc1c(C(N=[N+]=[N-])c2ccc(Br)cc2)nc(SC(C)C)[nH]c1=O (configuration not stated) |  |  | > 317 |  |  | > 1410 |  |  | 0.23
Cc1c(C(N=[N+]=[N-])c2ccc(F)cc2)nc(SC(C)C)[nH]c1=O (configuration not stated) |  |  | 320 |  |  | 1090 |  |  | 0.29
Cc1c(C(N=[N+]=[N-])c2ccc(OC(F)(F)F)cc2)nc(SC(C)C)[nH]c1=O (configuration not stated) |  |  | > 313 |  |  | > 63 |  |  | 4.93
CCc1c(C(N=[N+]=[N-])c2ccc(F)cc2)nc(SC(C)C)[nH]c1=O (configuration not stated) |  |  | > 360 |  |  | > 956 |  |  | 0.38
CC(C)Sc1nc(C(N=[N+]=[N-])c2ccc(F)cc2)c(C(C)C)c(=O)[nH]1 (configuration not stated) |  |  | > 346 |  |  | > 298 |  |  | 1.16
